Series [1] is described as follows: Pharmacokinetics, 3-day oral dose escalation study in APBD patients. Format: in vivo, human. To be noted: for Cmax: human, plasma, oral, 340 mg, per os in formulation LDS-C, 170, 255, 340 mg on days 1, 2, 3. How it is done:
(§1) Compound GHF-201 was administered to APBD modeling mice as a 5% DMSO solution, IV injected twice a week at a dose of 250 mg/kg, equivalent to a daily dose of 70 mg/kg. Daily injection was avoided due to the relatively long duration of treatment (6 months), which might have led to excessive scarring. Following positive results in the murine model, compound GHF-201 was administered to two APBD patients as a part of a 3-day oral dose escalation study, during which clinical safety and pharmacokinetic profiles were determined.
Blood was drawn during three consecutive days according to the following regime—pre-administration and 0.5 h, 1 h. 1.5 h, 2 h, and 4 h post-administration. Compound GHF-201 was administered as formulation LDS-C. 7.15% Compound GHF-201. Active ingredient doses were 170 mg on the first day, 255 mg on the second day, and 340 mg on the third day.
Following blood drawing, plasma was separated by centrifugation (up to 1 h from drawing) at 2000 g for 10 min. at 4° C. Compound GHF-201 levels in plasma (supernatant) samples were determined by LC-Mass Spectrometry (LC-MS/MS) using Sciex Triple Quad™ 5500 mass spectrometer. 100 μl of plasma were collected and extracted in 500 μl acetonitrile solution (acetonitrile/water 1:1 v/v). Calibration curves were made with 0.1, 10, 100, and 1000 ng/ml compound GHF-201 in 1 mg/ml solutions of 4-tert-butyl-2-(4H-1,2,4-triazol-4-yl) phenol (ChemBridge) as internal standard (IS). The samples were dissolved in 1 mg/ml IS solutions and spiked with 0-1000 ng/ml of compound GHF-201 to generate standard curves from which plasma levels of compound GHF-201 were determined.

The nature of series [2]: Pharmacokinetic profile in APBD modeling mice, IV 250 mg/kg. The following applies: in vivo. How it is done:
FIGS. 9A-9C are pharmacokinetic profiles of Compound GHF-201 administered per os in formulation LDS-C to APBD patient 1 (FIG. 9A) and IV at 250 mg/kg to n=3 APBD modeling mice (FIG. 9B). Active ingredient doses in days 1, 2, and 3 were 170 mg, 255 mg, and 340 mg, respectively. Encircled in A, values blown up in FIG. 9C.
as §1
Following the FDA human equivalent dose calculation, mouse dose can be converted to human dose by dividing by 12. […] Divided by 12, 4,700 ng/mL yields 392 ng/mL. […] Therefore, it was assumed that a human equivalent, or higher, dose in patients is at least as effective as the equivalent dose in mice.

Another series has as its system mice. In words: 14-day safety study in mice. The format is in vivo. To be noted: 14-day study. On the procedure:
Pharmacokinetically, subcutaneously injected in mice, compound GHF-201 had high dwell time and persistence (>3 h) in the liver, intermediate levels and persistence in brain and heart (1 h) and negligible distribution to the muscle. […] The ameliorative effect on extension reflex is especially important since the patient correlate is pyramidal tetraparesis or upper motor neuron signs which are one of the main neurological deficiencies in APBD patients.

Series [3] is described as follows: Tissue penetration / distribution in APBD model mice (LC-MS/MS). Format: in vivo. On the procedure: FIGS. 8A-8B show tissue penetration test results in APBD model mice for Compound GHF-201 in non-formulated form (FIG. 8A) and formulated in LDS-C formulation (FIG. 8B). For pharmacokinetic analysis, 100 μl serum as well as brain, kidney, hind limb quad muscle, heart, liver, and spleen tissues were collected, homogenized, and extracted with acetonitrile following established guidelines (Kapetanovic et al, 2006). Calibration curves were made with 0, 1, 10, 100, and 1,000 ng/ml GHF-201 in 1 mg/ml solutions of 4-tert-butyl-2-(4H-1,2,4-triazol-4-yl) phenol (ChemBridge) as internal standard (IS). Tissue samples were then dissolved in 1 mg/ml IS solutions and spiked with 0-1,000 ng/ml GHF-201 to generate standard curves from which tissue levels of GHF201 were determined. Samples were analyzed by the LC-MS/MS Sciex Triple Quad™ 5500 mass spectrometer.
Gbeys/ys mice injected subcutaneously with 250 mg/kg GHF-201 were sacrificed 30, 60, 90, and 210 min post injection, and the indicated tissues were removed, as well as 100 μL of serum drawn. […] Results obtained from n=3 mice at each time point.
The distribution and kinetic parameters of GHF-201 was assessed in different tissues.

The mark [4] stands for this setting: subcutaneously injected in mice.

Molecules are shown by their SMILES. Bounds are passed on as bounds.

Turning to `COCCN(Cc1sccc1C)C(=O)c1cc(C)[nH]c(=O)c1` [Compound GHF-201], the Cmax came out at 894 ng/mL in series [1] (patient 1); 883 ng/mL in series [1] (patient 2); 4700 ng/mL in series [2] (mouse, APBD modeling mice, IV 250 mg/kg). Also, the “Areas Under the Curve (AUC)” value in series [1] (patients 1 and 2, sum of trapezoids) is reported as “correlated with the level of compound GHF-201 administered”. Further, the “pre-administration levels in the plasma” value in series [1] (patients, three consecutive days) was “increased every consecutive day”. For the same molecule, in series [2] (intravenous, 250 mg/kg, FDA human equivalent dose calculation), the Human-equivalent Cmax (mouse Cmax divided by 12) is 392 ng/mL. Also, in the series on mice, the safety result is recorded as “safe”. Besides, the “bioavailability increase in all tissues” value in series [3] (orally administered in formulation vs subcutaneous injections of GHF-201 in solution, APBD model mice) is given as “at least three-fold”. For the same molecule, the “distribution to the muscle” value in series [3] (setting [4]) is recorded as “negligible”. The “dwell time and persistence in the liver” value in series [3] (setting [4]) is reported as above 3 h. The “persistence in brain and heart” value in series [3] (setting [4]) is recorded as 1 h.

As a reminder, the Cmax is the highest concentration seen after dosing.

These data come from patent US20260069534A1, “ORAL DELIVERY OF ACTIVE COMPOUNDS FOR TREATING GLYCOGEN STORAGE DISEASES” (LYOTROPIC DELIVERY SYSTEMS LTD., priority 2022, published 2026).
